In BindingDB's records for patent US11414404 (Array BioPharma Inc., 2022) one finds IC50 data, which are given here for three molecules.

Serine/threonine-protein kinase B-raf [V600E], sequence (P15056 2-766 V600E limits assumed): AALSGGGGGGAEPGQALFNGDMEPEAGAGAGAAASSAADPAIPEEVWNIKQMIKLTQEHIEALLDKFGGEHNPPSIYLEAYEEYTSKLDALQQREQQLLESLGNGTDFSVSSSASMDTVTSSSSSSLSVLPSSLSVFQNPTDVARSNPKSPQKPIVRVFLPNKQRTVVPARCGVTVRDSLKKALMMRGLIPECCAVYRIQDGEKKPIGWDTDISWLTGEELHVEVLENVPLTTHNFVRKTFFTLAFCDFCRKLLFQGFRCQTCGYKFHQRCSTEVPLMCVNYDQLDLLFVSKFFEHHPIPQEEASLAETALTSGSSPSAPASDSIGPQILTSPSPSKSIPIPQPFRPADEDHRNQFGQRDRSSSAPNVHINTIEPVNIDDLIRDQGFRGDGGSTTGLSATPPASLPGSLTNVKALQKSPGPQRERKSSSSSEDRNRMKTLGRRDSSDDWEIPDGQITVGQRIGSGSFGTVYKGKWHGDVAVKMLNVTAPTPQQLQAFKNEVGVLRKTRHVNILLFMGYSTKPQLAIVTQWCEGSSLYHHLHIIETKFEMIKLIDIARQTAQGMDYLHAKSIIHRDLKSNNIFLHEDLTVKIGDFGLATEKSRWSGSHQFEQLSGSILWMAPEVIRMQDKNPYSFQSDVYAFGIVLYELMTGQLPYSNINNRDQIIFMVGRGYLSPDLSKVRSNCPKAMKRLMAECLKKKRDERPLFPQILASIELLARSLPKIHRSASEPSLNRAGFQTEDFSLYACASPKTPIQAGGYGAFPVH

The experiment has as its target Serine/threonine-protein kinase B-raf [V600E] (Homo sapiens, UniProt P15056, V600E). Description: BRAF V600E and V600K Enzyme Assay. From the text: A competitive displacement assay was configured for B-Raf that monitors the amount of a fluorescently-tagged tracer bound to B-Raf via TR-FRET from an anti-tag Eu-labeled antibody also bound to B-Raf.
The molecule `Cc1c(Nc2c(F)ccc(NS(=O)(=O)CC3CC3)c2Cl)ccc2ncn(C)c(=O)c12` [US11414404, Ex. # 50] displayed an IC50 of 66.1 nM.

For `Cc1c(Nc2c(F)ccc(NS(=O)(=O)CC(C)C)c2Cl)ccc2ncn(C)c(=O)c12` [US11414404, Ex. # 51], 63.4 nM corresponded to half-maximal inhibition (IC50).

Molecule `Cc1c(Nc2c(F)cnc(NS(=O)(=O)CC3CC3)c2Cl)ccc2ncn(C)c(=O)c12` [US11414404, Ex. # 47] had an IC50 of 41.7 nM.

As a reminder, the IC50 is the concentration needed to halve the response being measured. Low values mean inhibition by little substance, high ones a need for much substance.
